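All cell lines were grown in 96-well plates and treated with compound for 48 hours. GI50 = concentration required for 50% inhibition of growth.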 Active and inactive are the calls of the source. Cut-off read from the data, not from the text of the source: active = GI50 up to about 1.1 µM and inactive = higher. Where only a bound is given, the exact number is not on record here.

Results on eight molecules are retold here after ChEMBL document CHEMBL1201862, “PubChem BioAssay data set” (2004).

Among the test systems are A549; HCT-15; HL-60; HOP-92; HT-29; Hs-578T; IGROV-1; KM12; NCI-H23; NCI/ADR-RES; SF-295; SK-MEL-5; SN12C; SNB-19; SW-620; TK-10; U-251; UACC-62; UO-31.
Holding throughout (assay): inhibition of tumour cell growth, NCI panel, 48 h

For `O=C1NC(=O)C(CC(C(=O)C(=O)Nc2ccccc2Cl)C(=O)c2ccc3ccccc3c2)C(=O)N1` (stereo unspecified), the GI50 in the experiment on A549 is > 100 µM (inactive); with HCT-15, more than 100 µM; in the experiment on HL-60 it was > 100 µM (inactive); with HOP-92 it was 61.9 µM (inactive); with HT-29 it was > 100 µM (inactive); with Hs-578T it was > 100 µM (inactive). The GI50 in the experiment on IGROV-1, with KM12, with NCI-H23, in the experiment with NCI/ADR-RES, in the experiment with SF-295 and with SK-MEL-5 was > 100 µM (inactive) each time. Moreover, the GI50 in the experiment with SN12C, with SNB-19, in the experiment with SW-620, in the experiment on TK-10, in the experiment with U-251 and in the experiment on UACC-62 was > 100 µM (inactive) throughout. Moreover, the GI50 with UO-31 is 63.7 µM (inactive).
`O=[N+]([O-])c1ccc(NC(=S)N/N=C(\c2ccccc2)c2ccccn2)cc1`: the GI50 in the experiment on A549 was 1.82 µM (inactive); in the experiment with HCT-15, 0.119 µM; with HL-60, < 0.0129 µM (active); with HOP-92 it was 1.87 µM (inactive); in the experiment on Hs-578T it was 3.3 µM (inactive); in the experiment on IGROV-1, 1.64 µM (inactive). The GI50 in the experiment with KM12 is 1.7 µM (inactive); in the experiment on NCI-H23, 2.18 µM (inactive); with NCI/ADR-RES, 2.04 µM (inactive); with SF-295 it was 1.55 µM (inactive); in the experiment on SK-MEL-5 it was 1.36 µM (inactive); with SN12C, 1.48 µM (inactive). Further, the GI50 in the experiment with SNB-19 is 1.58 µM (inactive); in the experiment on TK-10, 1.24 µM (inactive); with U-251, 1.36 µM (inactive); in the experiment with UACC-62, 1.24 µM (inactive); in the experiment with UO-31, 1.46 µM (inactive).
As to `O=C1CC(Br)c2c(Br)sc(Br)c21` (stereo unspecified), the GI50 is 29.1 µM (inactive) in the experiment with A549; 16.9 µM in the experiment with HCT-15; 14.2 µM (inactive) with HL-60; 17.7 µM (inactive) in the experiment with HOP-92; 16.7 µM (inactive) in the experiment on HT-29; 36.7 µM (inactive) in the experiment on Hs-578T. Besides, the GI50 was 16.6 µM (inactive) in the experiment on IGROV-1; 22.9 µM (inactive) in the experiment with KM12; 16.7 µM (inactive) in the experiment with NCI-H23; 34.5 µM (inactive) in the experiment on NCI/ADR-RES; 27.7 µM (inactive) in the experiment on SF-295; 19.8 µM (inactive) with SK-MEL-5. The GI50 in the experiment with SN12C was 15.6 µM (inactive); with SNB-19, 27.7 µM (inactive); in the experiment on SW-620, 10.5 µM (inactive); in the experiment with TK-10, 18.5 µM (inactive); in the experiment with U-251, 17.3 µM (inactive); with UACC-62, 17.1 µM (inactive). In addition, in the experiment with UO-31, the GI50 was 16.4 µM (inactive).
For `C=CC(O)(CBr)CCC(Br)C(=C)C` (stereo unspecified), the GI50 is > 10 µM (inactive) in the experiment on A549; more than 10 µM with HCT-15; > 10 µM (inactive) in the experiment with HL-60; > 10 µM (inactive) with HT-29; > 10 µM (inactive) in the experiment on Hs-578T; > 10 µM (inactive) in the experiment on IGROV-1. The GI50 with KM12, with NCI-H23, in the experiment with NCI/ADR-RES, with SF-295, in the experiment on SK-MEL-5 and in the experiment with SN12C was > 10 µM (inactive) each time. In addition, the GI50 in the experiment with SNB-19, with SW-620, in the experiment with TK-10, in the experiment with U-251 and with UACC-62 was > 10 µM (inactive) each time.
On to `NS(=O)(=O)c1ccc(CNC(=S)NC(=O)Nc2ccc(Cl)c(Cl)c2)cc1`, for which the GI50 with A549 was 23.6 µM (inactive); with HCT-15, 16.2 µM; with HOP-92, 17.7 µM (inactive); in the experiment on HT-29, 23.2 µM (inactive); with Hs-578T, 17.1 µM (inactive); with IGROV-1, 17.9 µM (inactive). In addition, the GI50 with KM12 was 19 µM (inactive); with NCI-H23, 14.8 µM (inactive); with NCI/ADR-RES it was 19 µM (inactive); in the experiment with SF-295, 16.3 µM (inactive); in the experiment on SK-MEL-5, 17.8 µM (inactive); in the experiment on SN12C, 17.3 µM (inactive). Besides, the GI50 in the experiment on SNB-19 was 19.8 µM (inactive); with SW-620 it was 18.9 µM (inactive); in the experiment on TK-10, 39.5 µM (inactive); in the experiment on U-251 it was 11.9 µM (inactive); with UACC-62, 15.1 µM (inactive); with UO-31 it was 16.9 µM (inactive).
In the case of `C=C(COCO)C(C)=O`, the GI50 is 26 µM (inactive) in the experiment on A549; 21.4 µM in the experiment on HCT-15; 3.48 µM (inactive) in the experiment with HL-60; 27 µM (inactive) in the experiment with HOP-92; 17.7 µM (inactive) with HT-29; 23.9 µM (inactive) in the experiment on Hs-578T. Besides, the GI50 in the experiment on IGROV-1 was 20.1 µM (inactive); with KM12 it was > 40.3 µM (inactive); with NCI-H23, 17.5 µM (inactive); in the experiment with NCI/ADR-RES it was 22.4 µM (inactive); in the experiment on SF-295, > 75 µM (inactive); with SK-MEL-5, 17.5 µM (inactive). Moreover, the GI50 in the experiment with SN12C was 18.4 µM (inactive); in the experiment with SNB-19, > 66.8 µM (inactive); in the experiment on SW-620, 3.3 µM (inactive); with TK-10, 13.7 µM (inactive); in the experiment on U-251, 24.5 µM (inactive); with UACC-62, 17.2 µM (inactive). Further, the GI50 with UO-31 is 12.2 µM (inactive).
Regarding `O=c1[nH]c(NCc2ccncc2)nc2[nH]cnc12`, the GI50 in the experiment with A549 is > 100 µM (inactive); in the experiment on HCT-15, more than 100 µM; in the experiment with HOP-92, > 100 µM (inactive); with HT-29 it was > 100 µM (inactive); in the experiment with Hs-578T, > 100 µM (inactive); in the experiment on IGROV-1 it was > 100 µM (inactive). In addition, the GI50 in the experiment with KM12, in the experiment with NCI-H23, in the experiment with NCI/ADR-RES, in the experiment with SF-295, with SK-MEL-5 and with SN12C was > 100 µM (inactive) throughout. The GI50 in the experiment with SNB-19, in the experiment with SW-620, in the experiment with TK-10, with U-251, in the experiment on UACC-62 and with UO-31 was > 100 µM (inactive) each time.
Consider `N#CC(c1ccccc1)N(CCOCCOCCN(C(=O)c1ccccc1)C(C#N)c1ccccc1)C(=O)c1ccccc1` (stereo unspecified), for which the GI50 with A549 is 98.9 µM (inactive); with HCT-15 it was more than 100 µM; with HL-60, 36.2 µM (inactive); with HOP-92 it was 43.8 µM (inactive); in the experiment on HT-29, > 100 µM (inactive); in the experiment on Hs-578T it was > 100 µM (inactive). The GI50 is > 100 µM (inactive) in the experiment on IGROV-1; > 100 µM (inactive) with KM12; 84.7 µM (inactive) in the experiment with NCI-H23; 28.2 µM (inactive) in the experiment with NCI/ADR-RES; > 100 µM (inactive) in the experiment on SF-295; 34.9 µM (inactive) in the experiment with SK-MEL-5. The GI50 in the experiment with SN12C is 93.3 µM (inactive); with SNB-19, > 100 µM (inactive); with SW-620, > 100 µM (inactive); in the experiment with TK-10, 78.2 µM (inactive); in the experiment with U-251, > 100 µM (inactive); in the experiment with UACC-62, 53.6 µM (inactive). Besides, the GI50 with UO-31 was 37.1 µM (inactive).
